# According to ChEMBL document CHEMBL3853264 (Medchemcomm, 2016):
# Columns and labels:
# [1] = Intrinsic clearance in rat liver microsomes; assay type: ADME; settings: read-out: CLH
# P-gp = assay: Substrate activity at p-gp (unknown origin) assessed as efflux ratio of permeability; assay type: ADME; settings: human, not told
# BCRP (ABCG2) = BCRP (ABCG2) (Homo sapiens, UniProt Q9UNQ0); assay: Substrate activity at BCRP (unknown origin) assessed as efflux ratio of permeability; assay type: ADME; settings: not told
# [2] = Solubility of the compound at pH 6.5; assay type: physicochemical; settings: buffer
# [3] = Dissociation constant, pKa of the compound; assay type: physicochemical
# [4] = Intrinsic clearance in human liver microsomes; assay type: ADME; settings: read-out: CLH
# [5] = Octanol-water partition co-efficient, log D of the compound by shake flask method; assay type: physicochemical
# [6] = Permeability in RRCK cells; assay type: ADME, cell-based, Canis lupus familiaris, MDCKII-LE; settings: dog, MDCK; read-out: permeability
# [7] = Intrinsic clearance in dog liver microsomes; assay type: ADME, Canis lupus familiaris; settings: read-out: CLH
# [8] = Fraction unbound in human plasma; assay type: ADME, cell-free
# [9] = Fraction unbound in rat plasma; assay type: ADME, cell-free
# [10] = Fraction unbound in dog plasma; assay type: ADME, cell-free, Canis lupus familiaris
# [11] = molecular target: Solute carrier organic anion transporter family member 1B1 (Homo sapiens, UniProt Q9Y6L6); assay: Drug uptake assessed as human OATP1B1-mediated drug accumulation by cell-based assay relative to wild type protein; assay type: ADME
# [12] = molecular target: Solute carrier organic anion transporter family member 1B3 (Homo sapiens, UniProt Q9NPD5); assay: Drug uptake assessed as human OATP1B3-mediated drug accumulation by cell-based assay relative to wild type protein; assay type: ADME
# Solute carrier organic anion transporter family member 1B3, sequence (Q9NPD5 whole entry): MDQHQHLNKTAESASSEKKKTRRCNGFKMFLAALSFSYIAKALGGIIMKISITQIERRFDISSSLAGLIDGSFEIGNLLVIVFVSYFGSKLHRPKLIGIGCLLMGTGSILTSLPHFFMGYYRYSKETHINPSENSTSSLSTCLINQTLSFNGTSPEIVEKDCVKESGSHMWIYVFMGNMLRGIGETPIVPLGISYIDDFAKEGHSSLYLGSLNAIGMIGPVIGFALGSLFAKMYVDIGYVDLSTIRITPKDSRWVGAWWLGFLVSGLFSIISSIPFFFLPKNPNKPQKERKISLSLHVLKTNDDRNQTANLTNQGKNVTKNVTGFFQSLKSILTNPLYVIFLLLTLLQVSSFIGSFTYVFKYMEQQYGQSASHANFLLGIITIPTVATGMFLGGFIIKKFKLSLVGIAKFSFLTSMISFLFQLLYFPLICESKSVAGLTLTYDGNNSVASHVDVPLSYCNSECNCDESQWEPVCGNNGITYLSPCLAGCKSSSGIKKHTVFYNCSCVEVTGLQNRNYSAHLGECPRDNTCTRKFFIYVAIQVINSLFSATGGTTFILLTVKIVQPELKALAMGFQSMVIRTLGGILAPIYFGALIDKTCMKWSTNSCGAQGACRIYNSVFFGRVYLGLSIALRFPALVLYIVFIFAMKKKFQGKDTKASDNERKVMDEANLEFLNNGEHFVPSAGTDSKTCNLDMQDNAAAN
# [13] = molecular target: Solute carrier organic anion transporter family member 2B1 (Homo sapiens, UniProt O94956); assay: Drug uptake assessed as human OATP2B1-mediated drug accumulation by cell-based assay relative to wild type protein; assay type: ADME
# Solute carrier organic anion transporter family member 2B1, sequence (O94956 whole entry): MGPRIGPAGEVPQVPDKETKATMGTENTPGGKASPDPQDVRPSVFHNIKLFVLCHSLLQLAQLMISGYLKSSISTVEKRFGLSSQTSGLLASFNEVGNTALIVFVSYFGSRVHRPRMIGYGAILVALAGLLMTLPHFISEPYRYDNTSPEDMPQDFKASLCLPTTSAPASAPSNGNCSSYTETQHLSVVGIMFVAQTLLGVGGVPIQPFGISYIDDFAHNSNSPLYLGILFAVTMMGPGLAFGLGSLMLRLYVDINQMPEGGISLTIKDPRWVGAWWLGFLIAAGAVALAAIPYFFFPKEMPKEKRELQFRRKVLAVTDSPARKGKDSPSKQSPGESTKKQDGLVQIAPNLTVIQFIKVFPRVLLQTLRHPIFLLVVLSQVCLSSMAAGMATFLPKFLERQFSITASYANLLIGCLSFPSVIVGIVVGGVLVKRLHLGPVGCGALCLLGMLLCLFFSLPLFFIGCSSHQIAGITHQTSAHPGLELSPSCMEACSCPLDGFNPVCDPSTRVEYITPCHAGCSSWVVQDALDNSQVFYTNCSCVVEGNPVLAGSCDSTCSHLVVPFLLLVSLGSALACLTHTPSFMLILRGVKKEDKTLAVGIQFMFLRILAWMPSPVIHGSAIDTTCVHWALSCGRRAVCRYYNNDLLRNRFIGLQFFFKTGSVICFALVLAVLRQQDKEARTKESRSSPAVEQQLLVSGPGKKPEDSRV
# Cytochrome P450 1A2 = Cytochrome P450 1A2 (Homo sapiens, UniProt P05177); assay: Inhibition of CYP1A2 (unknown origin); assay type: ADME
# Cytochrome P450 1A2, sequence (P05177 whole entry): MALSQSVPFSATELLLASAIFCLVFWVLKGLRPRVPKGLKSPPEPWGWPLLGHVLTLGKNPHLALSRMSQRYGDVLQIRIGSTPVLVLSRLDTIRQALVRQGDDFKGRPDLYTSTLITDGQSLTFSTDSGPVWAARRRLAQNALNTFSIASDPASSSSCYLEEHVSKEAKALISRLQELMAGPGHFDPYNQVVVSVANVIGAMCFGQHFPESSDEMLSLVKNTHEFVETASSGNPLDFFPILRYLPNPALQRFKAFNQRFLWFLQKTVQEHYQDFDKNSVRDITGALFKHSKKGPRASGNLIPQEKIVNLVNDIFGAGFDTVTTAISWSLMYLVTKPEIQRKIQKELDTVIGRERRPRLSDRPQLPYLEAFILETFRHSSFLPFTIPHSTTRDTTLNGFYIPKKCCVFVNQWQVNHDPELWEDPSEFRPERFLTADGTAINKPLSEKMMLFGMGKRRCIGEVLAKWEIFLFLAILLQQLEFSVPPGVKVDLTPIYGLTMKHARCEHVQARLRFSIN
# Cytochrome P450 2C8 = Cytochrome P450 2C8 (Homo sapiens, UniProt P10632); assay: Inhibition of CYP2C8 (unknown origin); assay type: ADME
# Cytochrome P450 2C9 = Cytochrome P450 2C9 (Homo sapiens, UniProt P11712); assay: Inhibition of CYP2C9 (unknown origin); assay type: ADME
# Cytochrome P450 2C9, sequence (P11712 whole entry): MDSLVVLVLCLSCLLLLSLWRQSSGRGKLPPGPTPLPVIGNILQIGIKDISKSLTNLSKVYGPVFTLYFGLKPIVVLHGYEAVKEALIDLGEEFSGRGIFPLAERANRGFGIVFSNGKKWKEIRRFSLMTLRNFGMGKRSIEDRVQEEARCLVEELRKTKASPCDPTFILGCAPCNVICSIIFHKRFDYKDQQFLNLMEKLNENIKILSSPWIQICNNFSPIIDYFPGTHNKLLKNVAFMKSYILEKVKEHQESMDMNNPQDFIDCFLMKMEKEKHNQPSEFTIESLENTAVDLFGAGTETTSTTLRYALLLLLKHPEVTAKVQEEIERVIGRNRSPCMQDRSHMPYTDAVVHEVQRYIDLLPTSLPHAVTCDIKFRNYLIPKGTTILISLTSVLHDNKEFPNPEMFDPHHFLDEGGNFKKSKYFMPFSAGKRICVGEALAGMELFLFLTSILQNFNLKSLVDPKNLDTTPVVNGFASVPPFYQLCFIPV
# Cytochrome P450 2C19 = Cytochrome P450 2C19 (Homo sapiens, UniProt P33261); assay: Inhibition of CYP2C19 (unknown origin); assay type: ADME
# Cytochrome P450 2D6 = Cytochrome P450 2D6 (Homo sapiens, UniProt P10635); assay: Inhibition of CYP2D6 (unknown origin); assay type: ADME
# Cytochrome P450 3A4 = Cytochrome P450 3A4 (Homo sapiens, UniProt P08684); assay: Inhibition of CYP3A4 (unknown origin); assay type: ADME
# Cytochrome P450 3A4, sequence (P08684 whole entry): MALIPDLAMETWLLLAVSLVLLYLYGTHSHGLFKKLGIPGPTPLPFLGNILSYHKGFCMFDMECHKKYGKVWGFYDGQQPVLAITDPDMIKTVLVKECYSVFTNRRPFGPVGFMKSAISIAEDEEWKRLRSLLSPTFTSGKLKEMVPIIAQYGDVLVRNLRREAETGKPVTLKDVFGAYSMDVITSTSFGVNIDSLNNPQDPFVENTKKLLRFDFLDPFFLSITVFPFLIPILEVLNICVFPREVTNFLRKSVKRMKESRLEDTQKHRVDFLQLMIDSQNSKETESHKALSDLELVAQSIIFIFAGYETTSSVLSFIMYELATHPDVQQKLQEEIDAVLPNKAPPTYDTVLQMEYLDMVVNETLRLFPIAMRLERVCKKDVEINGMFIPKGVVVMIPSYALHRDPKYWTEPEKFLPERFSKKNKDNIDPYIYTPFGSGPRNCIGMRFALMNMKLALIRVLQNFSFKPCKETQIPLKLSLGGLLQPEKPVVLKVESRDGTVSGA
# [14] = molecular target: Solute carrier family 22 member 6 (Homo sapiens, UniProt Q4U2R8); assay: Inhibition of OAT1 (unknown origin)
# [15] = molecular target: Organic anion transporter 3 (Homo sapiens, UniProt Q8TCC7); assay: Inhibition of OAT3 (unknown origin)
# [16] = molecular target: Solute carrier family 22 member 11 (Homo sapiens, UniProt Q9NSA0); assay: Inhibition of OAT4 (unknown origin)
# [17] = Cytotoxicity against THLE cells; assay type: toxicity, cell-based; settings: human
# [18] = Mutagenicity in […] by Ames test in presence of […] fraction; assay type: toxicity
# [19] = Mutagenicity in […] by Ames test in absence of […] fraction; assay type: toxicity
# [20] = molecular target: Voltage-gated inwardly rectifying potassium channel KCNH2 (Homo sapiens, UniProt Q12809); assay: Inhibition of human ERG by patch clamp method
# [21] = molecular target: Sodium channel protein type 5 subunit alpha (Homo sapiens, UniProt Q14524); assay: Inhibition of human NaV1.5 expressed in HEK293 cells by patch clamp method; assay type: cell-based
# Sodium channel protein type 5 subunit alpha, sequence (Q14524 whole entry): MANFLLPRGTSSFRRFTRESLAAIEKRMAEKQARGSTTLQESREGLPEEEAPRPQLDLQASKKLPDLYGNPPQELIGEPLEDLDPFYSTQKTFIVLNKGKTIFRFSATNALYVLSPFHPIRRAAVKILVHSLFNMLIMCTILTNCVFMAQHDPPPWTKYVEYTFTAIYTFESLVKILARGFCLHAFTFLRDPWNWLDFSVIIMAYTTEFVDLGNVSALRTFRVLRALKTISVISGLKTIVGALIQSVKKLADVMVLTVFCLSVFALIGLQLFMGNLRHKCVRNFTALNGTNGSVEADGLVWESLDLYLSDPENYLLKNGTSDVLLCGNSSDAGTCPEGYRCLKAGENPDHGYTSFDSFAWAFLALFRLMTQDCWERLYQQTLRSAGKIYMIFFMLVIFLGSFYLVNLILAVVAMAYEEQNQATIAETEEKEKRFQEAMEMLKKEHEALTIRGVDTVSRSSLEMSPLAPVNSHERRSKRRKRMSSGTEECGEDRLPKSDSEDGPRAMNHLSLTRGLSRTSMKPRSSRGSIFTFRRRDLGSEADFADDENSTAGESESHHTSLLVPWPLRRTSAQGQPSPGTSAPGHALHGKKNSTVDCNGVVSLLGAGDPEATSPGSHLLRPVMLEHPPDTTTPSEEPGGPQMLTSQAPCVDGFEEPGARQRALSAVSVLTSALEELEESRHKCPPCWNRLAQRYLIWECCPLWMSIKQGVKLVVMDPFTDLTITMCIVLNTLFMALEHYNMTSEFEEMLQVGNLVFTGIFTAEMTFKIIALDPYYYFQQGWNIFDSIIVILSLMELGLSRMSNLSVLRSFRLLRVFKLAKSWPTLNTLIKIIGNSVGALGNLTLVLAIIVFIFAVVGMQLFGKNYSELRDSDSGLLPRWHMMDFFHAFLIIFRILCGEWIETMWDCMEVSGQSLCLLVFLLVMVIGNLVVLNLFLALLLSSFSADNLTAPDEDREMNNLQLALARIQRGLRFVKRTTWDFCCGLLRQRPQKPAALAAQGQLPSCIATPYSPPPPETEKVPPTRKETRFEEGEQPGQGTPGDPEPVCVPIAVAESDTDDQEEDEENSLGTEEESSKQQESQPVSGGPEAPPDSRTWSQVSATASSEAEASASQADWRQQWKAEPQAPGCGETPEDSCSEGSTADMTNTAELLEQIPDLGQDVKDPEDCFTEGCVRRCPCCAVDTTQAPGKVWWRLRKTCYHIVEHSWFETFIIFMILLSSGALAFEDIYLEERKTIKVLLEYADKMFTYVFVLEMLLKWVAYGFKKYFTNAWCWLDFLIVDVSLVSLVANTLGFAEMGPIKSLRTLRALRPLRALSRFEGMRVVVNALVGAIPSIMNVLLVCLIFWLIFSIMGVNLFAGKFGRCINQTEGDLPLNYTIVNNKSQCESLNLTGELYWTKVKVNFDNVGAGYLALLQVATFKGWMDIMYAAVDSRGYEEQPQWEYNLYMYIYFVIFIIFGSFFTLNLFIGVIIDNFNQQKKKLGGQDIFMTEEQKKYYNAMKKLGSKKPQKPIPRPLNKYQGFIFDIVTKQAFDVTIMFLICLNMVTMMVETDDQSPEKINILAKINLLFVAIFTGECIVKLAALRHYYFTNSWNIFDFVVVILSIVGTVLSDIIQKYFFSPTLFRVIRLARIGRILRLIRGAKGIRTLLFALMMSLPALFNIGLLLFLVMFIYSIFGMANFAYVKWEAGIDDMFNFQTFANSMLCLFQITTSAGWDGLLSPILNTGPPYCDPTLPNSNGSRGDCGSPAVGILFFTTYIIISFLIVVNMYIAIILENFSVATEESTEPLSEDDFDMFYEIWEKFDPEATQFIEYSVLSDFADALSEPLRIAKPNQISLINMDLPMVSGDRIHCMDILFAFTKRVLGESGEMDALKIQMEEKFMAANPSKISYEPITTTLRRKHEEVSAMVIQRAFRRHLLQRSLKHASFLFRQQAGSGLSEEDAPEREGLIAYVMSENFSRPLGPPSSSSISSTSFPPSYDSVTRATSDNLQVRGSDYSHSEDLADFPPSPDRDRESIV
# [22] = molecular target: Sodium channel protein type 9 subunit alpha (Homo sapiens, UniProt Q15858); assay: Inhibition of NaV1.7 (unknown origin) by electrophysiology assay
# [23] = Inhibition of GABAA receptor (unknown origin); set-up: species or system Homo sapiens
# [24] = Intrinsic clearance in human hepatocytes assessed per 10^6 cells; assay type: ADME, cell-based, Hepatocyte; settings: read-out: CLH
# [25] = Intrinsic clearance in rat hepatocytes assessed per 10^6 cells; assay type: ADME, cell-based, Hepatocyte; settings: read-out: CLH
# [26] = Intrinsic clearance in dog hepatocytes assessed per 10^6 cells; assay type: ADME, cell-based, Canis lupus familiaris, Hepatocyte; settings: read-out: CLH
# [27] = Plasma clearance in rat at 0.5 mg/kg, iv and 1 mg/kg, po; assay type: ADME, organism-based
# [28] = Unbound clearance in rat at 0.5 mg/kg, iv and 1 mg/kg, po; assay type: ADME, organism-based; settings: in vivo
# [29] = Half life in rat at 0.5 mg/kg, iv and 1 mg/kg, po; assay type: ADME, organism-based; settings: in vivo
# [30] = Volume of distribution at steady state in rat at 0.5 mg/kg, iv and 1 mg/kg, po; assay type: ADME, organism-based; settings: in vivo, read-out: Vdss
# [31] = Oral bioavailability in rat at 1 mg/kg; assay type: ADME, organism-based; settings: in vivo
# [32] = Drug excretion in bile of bile duct cannulated rat; assay type: ADME; settings: read-out: Drug excretion
# [33] = Drug metabolism in human liver microsomes assessed as 2-chloro-4-(2-cyano-4-(N-(5-fluoropyridin-2-yl)sulfamoyl)phenoxy)benzoic acid formation; assay type: ADME
# [34] = Drug metabolism in human hepatocytes assessed as 2-chloro-4-(2-cyano-4-(N-(5-fluoropyridin-2-yl)sulfamoyl)phenoxy)benzoic acid formation; assay type: ADME, cell-based, Hepatocyte
# [35] = Drug metabolism in rat hepatocytes assessed as (2S,3S,4S,5R,6R)-6-(2-chloro-4-(2-cyano-4-(N-(5-fluoropyridin-2-yl)sulfamoyl)phenoxy)benzyloxy)-3,4,5-trihydroxytetrahydro-2H-pyran-2-carboxylic acid formation; assay type: ADME, cell-based, Hepatocyte
# [36] = Toxicity in po dosed dog measured assessed as drug tolerance measured over 14 days; assay type: organism-based, Canis lupus familiaris; settings: in vivo, 336 h
# [37] = Toxicity in dog up to 100 mg/kg/day, po measured over 14 days by clinical pathology test; assay type: organism-based, Canis lupus familiaris; settings: in vivo, 336 h
# Rattus norvegicus [38] = assay: Toxicity in rat assessed as change in body weight up to 300 mg/kg/day, po measured over 14 days; assay type: organism-based; settings: in vivo, 336 h
# Rattus norvegicus [39] = assay: Toxicity in rat assessed as change in food consumption up to 300 mg/kg/day, po measured over 14 days; assay type: organism-based; settings: in vivo, 336 h
# Rattus norvegicus [40] = assay: Toxicity in rat assessed as hematological changes up to 300 mg/kg/day, po measured over 14 days; assay type: organism-based; settings: in vivo, 336 h
# Rattus norvegicus [41] = assay: Toxicity in rat up to 300 mg/kg/day, po measured over 14 days by clinical chemistry study; assay type: organism-based; settings: in vivo, 336 h
# Rattus norvegicus [42] = assay: Toxicity in rat assessed as change in organ weight up to 300 mg/kg/day, po measured over 14 days; assay type: organism-based; settings: in vivo, 336 h
# Rattus norvegicus [43] = assay: Toxicity in rat up to 300 mg/kg/day, po measured over 14 days by necropsy; assay type: organism-based; settings: in vivo, 336 h
# Rattus norvegicus [44] = assay: Toxicity in rat up to 300 mg/kg/day, po measured over 14 days by microscopic study; assay type: organism-based; settings: in vivo, 336 h
# [45] = Unbound Cmax in rat at 300 mg/kg, po administered as single dose measured on day 14; assay type: ADME, organism-based; settings: in vivo
# [46] = Average plasma concentration in rat at 300 mg/kg, po administered as single dose measured on day 14; assay type: ADME, organism-based; settings: in vivo
# Rattus norvegicus [47] = assay: Toxicity in po dosed rat assessed as drug tolerance measured over 14 days; assay type: organism-based; settings: in vivo, 336 h
# [48] = Toxicity in dog up to 100 mg/kg/day, po measured over 14 days by histologic test; assay type: organism-based, Canis lupus familiaris; settings: in vivo, 336 h
# [49] = Toxicity in dog assessed as emesis at 100 mg/kg/day, po measured over 14 days by histologic test; assay type: organism-based, Canis lupus familiaris; settings: in vivo, 336 h
# [50] = Toxicity in dog assessed as salivation at 100 mg/kg/day, po measured over 14 days by histologic test; assay type: organism-based, Canis lupus familiaris; settings: in vivo, 336 h
# [51] = Toxicity in dog assessed as decrease in hepatic glycogen content at 100 mg/kg/day, po measured over 14 days; assay type: organism-based, Canis lupus familiaris; settings: in vivo, 336 h
# [52] = Toxicity in dog assessed as decrease in serum glucose at 100 mg/kg/day, po measured over 14 days; assay type: organism-based, Canis lupus familiaris; settings: in vivo, 336 h
# [53] = Unbound Cmax in dog at 100 mg/kg, po administered as single dose measured on day 14; assay type: ADME, organism-based, Canis lupus familiaris; settings: in vivo
# [54] = Average plasma concentration in dog at 100 mg/kg, po administered as single dose measured on day 14; assay type: ADME, organism-based, Canis lupus familiaris; settings: in vivo
# Rattus norvegicus [55] = assay: Cardiovascular toxicity in rat up to 30 mg/kg/day, po measured over 14 days; assay type: organism-based; settings: in vivo, 336 h
# Rattus norvegicus [56] = assay: Toxicity in rat assessed as increase in blood pressure at 100 mg/kg/day, po measured over 14 days; assay type: organism-based; settings: in vivo, 336 h
# [57] = Unbound Cmax in rat at 30 mg/kg, po administered as single dose measured on day 14; assay type: ADME, organism-based; settings: in vivo
# [58] = Average plasma concentration in rat at 30 mg/kg, po administered as single dose measured on day 14; assay type: ADME, organism-based; settings: in vivo
compound,measurement,setting,value
N#Cc1cc(S(=O)(=O)Nc2ccc(F)cn2)ccc1Oc1ccc(CO)c(Cl)c1,microsomal CLint,[1],< 14 µL/min/mg
same,efflux ratio,P-gp,1.9
same,efflux ratio,BCRP (ABCG2),34
same,solubility,[2],15.3 µM
same,pKa,[3],5.7
same,microsomal CLint,[4],< 10 µL/min/mg
same,logD,[5],2.1
same,Papp,[6],12 ×10⁻⁶ cm/s
same,microsomal CLint,[7],< 18 µL/min/mg
same,fraction unbound,[8],0.0083
same,fraction unbound,[9],0.0043
same,fraction unbound,[10],0.014
same,fold change (FC),[11],1.181
same,fold change (FC),[12],1.124
same,fold change (FC),[13],1.48
same,IC50,Cytochrome P450 1A2,> 30 µM
same,IC50,Cytochrome P450 2C8,9.9 µM
same,IC50,Cytochrome P450 2C9,2 µM
same,IC50,Cytochrome P450 2C19,17.5 µM
same,IC50,Cytochrome P450 2D6,> 30 µM
same,IC50,Cytochrome P450 3A4,> 30 µM
same,IC50,[14],14.3 µM
same,IC50,[15],0.5 µM
same,IC50,[16],15 µM
same,Activity,[17],105 µM
same,Activity,[18],Non-Toxic
same,Activity,[19],Non-Toxic
same,IC50,[20],> 100 µM
same,IC50,[21],> 30 µM
same,IC50,[22],> 30 µM
same,Ki,[23],> 10 µM
same,hepatocyte CLint,[24],23 µL/min/1e6 cells
same,hepatocyte CLint,[25],82 µL/min/1e6 cells
same,hepatocyte CLint,[26],< 6 µL/min/1e6 cells
same,clearance,[27],1.3 mL/min/kg
same,CL free,[28],93 mL/min/kg
same,half-life,[29],3.9 h
same,Vd,[30],0.27 L/kg
same,bioavailability,[31],50%
same,dose excreted,[32],10%
same,Drug metabolism,[33],Metabolite_Detected
same,Drug metabolism,[34],Metabolite_Detected
same,Drug metabolism,[35],Metabolite_Detected
same,Activity,[36],<= 100 mg/kg/day
same,Activity,[37],Non-Toxic
same,Activity,Rattus norvegicus [38],Non-Toxic
same,Activity,Rattus norvegicus [39],Non-Toxic
same,Activity,Rattus norvegicus [40],Non-Toxic
same,Activity,Rattus norvegicus [41],Non-Toxic
same,Activity,Rattus norvegicus [42],Non-Toxic
same,Activity,Rattus norvegicus [43],Non-Toxic
same,Activity,Rattus norvegicus [44],Non-Toxic
same,fCmax,[45],537 nM
same,Cave,[46],240 nM
same,Activity,Rattus norvegicus [47],<= 300 mg/kg/day
same,Activity,[48],Non-Toxic
same,Activity,[49],Toxic
same,Activity,[50],Toxic
same,Activity,[51],Toxic
same,Activity,[52],Toxic
same,fCmax,[53],3.905 µM
same,Cave,[54],1019 nM
same,Activity,Rattus norvegicus [55],Non-Toxic
same,Activity,Rattus norvegicus [56],Non-Toxic
same,fCmax,[57],98 nM
same,Cave,[58],43 nM
